Values of other authors as cited in patent EP0404807B1, “DEPRENYL FOR SYSTEMIC TRANSDERMAL ADMINISTRATION” (SOMERSET PHARMACEUTICALS, INC., priority 1988, dated 1989).

Details: deprenyl alone, as stated in EP 0241809 A

In the case of `C#CCN(C)C(C)Cc1ccccc1` (stereo not shown) [deprenyl, N-methyl-N-(1-phenyl-2-propyl)-2-propinylamine], the anti-Parkinsonism action is listed as “almost no anti-Parkinsonism action”.
